From the NIST ThermoML archive (doi:10.1021/je050414d)
± gives the expanded uncertainty stated by the source.

Test: xn = mol fraction of the nth substance listed
Conditions: 101 kPa, Liquid; for viscosity: Capillary tube (Ostwald / Ubbelohde) method

Structure (SMILES): CCOC(=O)OCC [diethyl carbonate] + CC(C)O
- viscosity (293.15 K, x1 = 0.1015): 1.586 ± 0.012 mPa·s
- viscosity (293.15 K, x1 = 0.1993): 1.252 ± 0.01 mPa·s
- viscosity (293.15 K, x1 = 0.3027): 1.073 ± 0.009 mPa·s
- viscosity (293.15 K, x1 = 0.4029): 0.946 ± 0.009 mPa·s
- viscosity (293.15 K, x1 = 0.5018): 0.865 ± 0.008 mPa·s
- viscosity (293.15 K, x1 = 0.5905): 0.827 ± 0.008 mPa·s
- viscosity (293.15 K, x1 = 0.7267): 0.791 ± 0.008 mPa·s
- viscosity (293.15 K, x1 = 0.8053): 0.781 ± 0.008 mPa·s
- viscosity (293.15 K, x1 = 0.8494): 0.782 ± 0.008 mPa·s
- viscosity (293.15 K, x1 = 1): 0.8 ± 0.008 mPa·s
- mass density (293.15 K, x1 = 0.1015): 812.95 ± 2.5 kg/m3
- mass density (293.15 K, x1 = 0.1993): 837.12 ± 2.3 kg/m3
- mass density (293.15 K, x1 = 0.3027): 861.52 ± 2.1 kg/m3
- mass density (293.15 K, x1 = 0.4029): 880.88 ± 1.9 kg/m3
- mass density (293.15 K, x1 = 0.5018): 901.57 ± 1.7 kg/m3
- mass density (293.15 K, x1 = 0.5905): 914.48 ± 1.6 kg/m3
- mass density (293.15 K, x1 = 0.7267): 936.22 ± 1.4 kg/m3
- mass density (293.15 K, x1 = 0.8053): 947.93 ± 1.3 kg/m3
- mass density (293.15 K, x1 = 0.8494): 954.32 ± 1.2 kg/m3
- mass density (293.15 K, x1 = 1): 975 ± 1 kg/m3
- viscosity (298.15 K, x1 = 0.1015): 1.393 ± 0.011 mPa·s
- viscosity (298.15 K, x1 = 0.1993): 1.119 ± 0.009 mPa·s
- viscosity (298.15 K, x1 = 0.3027): 0.964 ± 0.009 mPa·s
- viscosity (298.15 K, x1 = 0.4029): 0.86 ± 0.008 mPa·s
- viscosity (298.15 K, x1 = 0.5018): 0.791 ± 0.008 mPa·s
- viscosity (298.15 K, x1 = 0.5905): 0.76 ± 0.008 mPa·s
- viscosity (298.15 K, x1 = 0.7267): 0.731 ± 0.008 mPa·s
- viscosity (298.15 K, x1 = 0.8053): 0.726 ± 0.008 mPa·s
- viscosity (298.15 K, x1 = 0.8494): 0.726 ± 0.008 mPa·s
- viscosity (298.15 K, x1 = 1): 0.746 ± 0.008 mPa·s
- mass density (298.15 K, x1 = 0.1015): 808.12 ± 2.6 kg/m3
- mass density (298.15 K, x1 = 0.1993): 831.98 ± 2.3 kg/m3
- mass density (298.15 K, x1 = 0.3027): 855.03 ± 2.1 kg/m3
- mass density (298.15 K, x1 = 0.4029): 875.34 ± 1.9 kg/m3
- mass density (298.15 K, x1 = 0.5018): 893.55 ± 1.8 kg/m3
- mass density (298.15 K, x1 = 0.5905): 908.68 ± 1.6 kg/m3
- mass density (298.15 K, x1 = 0.7267): 930.3 ± 1.4 kg/m3
- mass density (298.15 K, x1 = 0.8053): 941.94 ± 1.3 kg/m3
- mass density (298.15 K, x1 = 0.8494): 948.31 ± 1.3 kg/m3
- mass density (298.15 K, x1 = 1): 968.97 ± 1.1 kg/m3
- viscosity (303.15 K, x1 = 0.1015): 1.223 ± 0.01 mPa·s
- viscosity (303.15 K, x1 = 0.1993): 0.996 ± 0.009 mPa·s
- viscosity (303.15 K, x1 = 0.3027): 0.867 ± 0.008 mPa·s
- viscosity (303.15 K, x1 = 0.4029): 0.782 ± 0.008 mPa·s
- viscosity (303.15 K, x1 = 0.5018): 0.726 ± 0.008 mPa·s
- viscosity (303.15 K, x1 = 0.5905): 0.7 ± 0.008 mPa·s
- viscosity (303.15 K, x1 = 0.7267): 0.677 ± 0.007 mPa·s
- viscosity (303.15 K, x1 = 0.8053): 0.674 ± 0.007 mPa·s
- viscosity (303.15 K, x1 = 0.8494): 0.676 ± 0.007 mPa·s
- viscosity (303.15 K, x1 = 1): 0.695 ± 0.008 mPa·s
- mass density (303.15 K, x1 = 0.1015): 803.27 ± 2.6 kg/m3
- mass density (303.15 K, x1 = 0.1993): 826.84 ± 2.4 kg/m3
- mass density (303.15 K, x1 = 0.3027): 849.57 ± 2.2 kg/m3
- mass density (303.15 K, x1 = 0.4029): 869.48 ± 2 kg/m3
- mass density (303.15 K, x1 = 0.5018): 887.62 ± 1.8 kg/m3
- mass density (303.15 K, x1 = 0.5905): 902.71 ± 1.7 kg/m3
- mass density (303.15 K, x1 = 0.7267): 924.09 ± 1.5 kg/m3
- mass density (303.15 K, x1 = 0.8053): 935.6 ± 1.4 kg/m3
- mass density (303.15 K, x1 = 0.8494): 941.89 ± 1.3 kg/m3
- mass density (303.15 K, x1 = 1): 962.39 ± 1.1 kg/m3
- viscosity (313.15 K, x1 = 0.1015): 0.964 ± 0.009 mPa·s
- viscosity (313.15 K, x1 = 0.1993): 0.806 ± 0.008 mPa·s
- viscosity (313.15 K, x1 = 0.3027): 0.716 ± 0.008 mPa·s
- viscosity (313.15 K, x1 = 0.4029): 0.657 ± 0.007 mPa·s
- viscosity (313.15 K, x1 = 0.5018): 0.618 ± 0.007 mPa·s
- viscosity (313.15 K, x1 = 0.5905): 0.601 ± 0.007 mPa·s
- viscosity (313.15 K, x1 = 0.7267): 0.588 ± 0.007 mPa·s
- viscosity (313.15 K, x1 = 0.8053): 0.588 ± 0.007 mPa·s
- viscosity (313.15 K, x1 = 0.8494): 0.59 ± 0.007 mPa·s
- viscosity (313.15 K, x1 = 1): 0.61 ± 0.007 mPa·s
- mass density (313.15 K, x1 = 0.1015): 793.12 ± 2.7 kg/m3
- mass density (313.15 K, x1 = 0.1993): 816.46 ± 2.5 kg/m3
- mass density (313.15 K, x1 = 0.3027): 839.13 ± 2.3 kg/m3
- mass density (313.15 K, x1 = 0.4029): 859.2 ± 2.1 kg/m3
- mass density (313.15 K, x1 = 0.5018): 877.18 ± 1.9 kg/m3
- mass density (313.15 K, x1 = 0.5905): 892.18 ± 1.8 kg/m3
- mass density (313.15 K, x1 = 0.7267): 913.63 ± 1.6 kg/m3
- mass density (313.15 K, x1 = 0.8053): 925.25 ± 1.5 kg/m3
- mass density (313.15 K, x1 = 0.8494): 931.59 ± 1.4 kg/m3
- mass density (313.15 K, x1 = 1): 952.32 ± 1.2 kg/m3
- viscosity (323.15 K, x1 = 0.1015): 0.78 ± 0.008 mPa·s
- viscosity (323.15 K, x1 = 0.1993): 0.668 ± 0.008 mPa·s
- viscosity (323.15 K, x1 = 0.3027): 0.604 ± 0.007 mPa·s
- viscosity (323.15 K, x1 = 0.4029): 0.562 ± 0.007 mPa·s
- viscosity (323.15 K, x1 = 0.5018): 0.535 ± 0.007 mPa·s
- viscosity (323.15 K, x1 = 0.5905): 0.524 ± 0.007 mPa·s
- viscosity (323.15 K, x1 = 0.7267): 0.517 ± 0.007 mPa·s
- viscosity (323.15 K, x1 = 0.8053): 0.519 ± 0.007 mPa·s
- viscosity (323.15 K, x1 = 0.8494): 0.521 ± 0.007 mPa·s
- viscosity (323.15 K, x1 = 1): 0.541 ± 0.007 mPa·s
- mass density (323.15 K, x1 = 0.1015): 781.71 ± 2.8 kg/m3
- mass density (323.15 K, x1 = 0.1993): 804.58 ± 2.6 kg/m3
- mass density (323.15 K, x1 = 0.3027): 826.95 ± 2.4 kg/m3
- mass density (323.15 K, x1 = 0.4029): 846.73 ± 2.2 kg/m3
- mass density (323.15 K, x1 = 0.5018): 864.62 ± 2 kg/m3
- mass density (323.15 K, x1 = 0.5905): 879.49 ± 1.9 kg/m3
- mass density (323.15 K, x1 = 0.7267): 900.94 ± 1.7 kg/m3
- mass density (323.15 K, x1 = 0.8053): 912.58 ± 1.6 kg/m3
- mass density (323.15 K, x1 = 0.8494): 918.93 ± 1.5 kg/m3
- mass density (323.15 K, x1 = 1): 939.78 ± 1.3 kg/m3
- viscosity (333.15 K, x1 = 0.1015): 0.637 ± 0.007 mPa·s
- viscosity (333.15 K, x1 = 0.1993): 0.559 ± 0.007 mPa·s
- viscosity (333.15 K, x1 = 0.3027): 0.515 ± 0.007 mPa·s
- viscosity (333.15 K, x1 = 0.4029): 0.485 ± 0.007 mPa·s
- viscosity (333.15 K, x1 = 0.5018): 0.467 ± 0.007 mPa·s
- viscosity (333.15 K, x1 = 0.5905): 0.46 ± 0.007 mPa·s
- viscosity (333.15 K, x1 = 0.7267): 0.458 ± 0.007 mPa·s
- viscosity (333.15 K, x1 = 0.8053): 0.461 ± 0.007 mPa·s
- viscosity (333.15 K, x1 = 0.8494): 0.464 ± 0.007 mPa·s
- viscosity (333.15 K, x1 = 1): 0.483 ± 0.007 mPa·s
- mass density (333.15 K, x1 = 0.1015): 771.12 ± 2.9 kg/m3
- mass density (333.15 K, x1 = 0.1993): 793.64 ± 2.7 kg/m3
- mass density (333.15 K, x1 = 0.3027): 815.77 ± 2.5 kg/m3
- mass density (333.15 K, x1 = 0.4029): 835.41 ± 2.3 kg/m3
- mass density (333.15 K, x1 = 0.5018): 853.29 ± 2.1 kg/m3
- mass density (333.15 K, x1 = 0.5905): 868.1 ± 2 kg/m3
- mass density (333.15 K, x1 = 0.7267): 889.56 ± 1.8 kg/m3
- mass density (333.15 K, x1 = 0.8053): 901.29 ± 1.7 kg/m3
- mass density (333.15 K, x1 = 0.8494): 907.67 ± 1.6 kg/m3
- mass density (333.15 K, x1 = 1): 928.69 ± 1.4 kg/m3
- viscosity (343.15 K, x1 = 0.1015): 0.523 ± 0.007 mPa·s
- viscosity (343.15 K, x1 = 0.1993): 0.47 ± 0.007 mPa·s
- viscosity (343.15 K, x1 = 0.3027): 0.44 ± 0.007 mPa·s
- viscosity (343.15 K, x1 = 0.4029): 0.421 ± 0.007 mPa·s
- viscosity (343.15 K, x1 = 0.5018): 0.41 ± 0.007 mPa·s
- viscosity (343.15 K, x1 = 0.5905): 0.407 ± 0.007 mPa·s
- viscosity (343.15 K, x1 = 0.7267): 0.409 ± 0.007 mPa·s
- viscosity (343.15 K, x1 = 0.8053): 0.413 ± 0.007 mPa·s
- viscosity (343.15 K, x1 = 0.8494): 0.417 ± 0.007 mPa·s
- viscosity (343.15 K, x1 = 1): 0.435 ± 0.007 mPa·s
- mass density (343.15 K, x1 = 0.1015): 760.13 ± 3 kg/m3
- mass density (343.15 K, x1 = 0.1993): 782.3 ± 2.8 kg/m3
- mass density (343.15 K, x1 = 0.3027): 804.17 ± 2.6 kg/m3
- mass density (343.15 K, x1 = 0.4029): 823.53 ± 2.4 kg/m3
- mass density (343.15 K, x1 = 0.5018): 841.14 ± 2.2 kg/m3
- mass density (343.15 K, x1 = 0.5905): 855.92 ± 2.1 kg/m3
- mass density (343.15 K, x1 = 0.7267): 877.3 ± 1.9 kg/m3
- mass density (343.15 K, x1 = 0.8053): 888.96 ± 1.8 kg/m3
- mass density (343.15 K, x1 = 0.8494): 895.36 ± 1.7 kg/m3
- mass density (343.15 K, x1 = 1): 916.33 ± 1.6 kg/m3
